The record followed here is patent publication EP4680608B1, “2,6-DIHYDRO-7H-PYRAZOLO[3,4-C]PYRIDIN-7-ONE DERIVATIVES AS ANTI-MALARIAL AGENTS” (MMV Medicines for Malaria Venture, priority 2024, dated 2025).

Structures are written as SMILES.

One test has as its target T1, P. falciparum DHODH (Plasmodium falciparum, UniProt Q08210).
T1 construct: His6 (N); made in house; host or cells: E. coli BL21-DE3 (phage-resistant)
The test can be described thus: DHODH inhibition, steady-state DCIP assay (PfDHODH). The test is classed as biochemical. The conditions noted are these: recombinant PfDHODH, DCIP method, 25°C, 5 nM enzyme. As to the method: (§1) Compound stocks were prepared at 10-100 mM in DMSO, and diluted working stocks in DMSO were generated as appropriate. Compounds were plated from DMSO stocks in 96 well plate format using a Tecan D300e digital dispenser to generate a 3-fold dilution series over a concentration range of 0.0003 -100 µM (or 30 µM), yielding a final DMSO concentration of 1% in the assay. The top concentration used in the dose response was determined by the initial DMSO stock concentrations:100 µM for 100 mM stocks, and 30 µM for 10 mM stocks. Triplicate rate data were collected at each inhibitor concentration. Inhibitory IC50 values were determined by fitting the data to log (inhibitor) vs response equation Y = bottom + (top - bottom)/(1 + 10A ((X - Log IC50))) in GraphPad Prism.

The test system of a further test is P. falciparum 3D7. The test is described as follows: Asexual blood-stage growth inhibition assay, SYBR green method. The test is classed as cell-based. To be noted: Plasmodium falciparum, 3D7, 72 h, ring-stage 3D7 parasites. As to the method:
Asexual blood-stage EC50 assays. […] Compound stocks prepared in DMSO were plated using a Tecan D300e automated low volume liquid handler. Ring-stage 3D7 or Dd2 parasites (60 µL cells) (2% hematocrit, 0.5% parasitemia, final DMSO concentration 0.5%) were added to plates, incubated with compounds over a range of concentrations in technical triplicate for 72 h at 37 °C, 5% CO2, and then frozen (-80°C) overnight before analysis. […] Data were analyzed by non-linear regression using GraphPad Prism to determine the EC50 by fitting to the built-in equation (log(inhibitor) vs response-variable slope with four parameters).

For a further test, the target named is P. vivax DHODH (Plasmodium vivax, UniProt A5K1N1). The test is described as follows: DHODH inhibition, steady-state DCIP assay (PvDHODH). The format is biochemical. The conditions noted are these: recombinant PvDHODH, DCIP method, 25°C, 5 nM enzyme; read-out: P. vivax DHODH (IC50).
Source text: (§2) DOI: 10.1074/jbc.M206854200).
(§3) Proteins were expressed and purified on a Pharmacia FPLC using HisTrap HP column chromatography followed by gel filtration chromatography on a Pharmacia HiLoad 16/600 Superdex 200 column, and protein concentration determined based on OD280 using the previously described extinction coefficients (Kokkonda et al., 2020, J Med Chem, 63 (9), 4929-4956. DOI: 10.1021/acs.jmedchem.0c00311). Purified proteins were >95% pure based on SDS-PAGE analysis.
(§4) DHODH activity was monitored in a steady-state assay using the 2,6-dichloroindophenol (DCIP) method at 25°C in assay buffer (100 mM HEPES, pH 8.0, 150 mM NaCl, 1% glycerol, 0.1% Triton X-100 reduced) plus substrates 20 µM CoQD, 200 µM DHO, 120 µM DCIP, and 5 nM enzyme as previously described (Malmquist et al, 2008, Biochemistry, 47 (8), 2466-2475. DOI: 10.1021/bi702218c).
as §1, with “Prism. DSM265 ^2 was plated as an assay control in all studies.” for “Prism.”

For the next test, the target named is T2, Human DHODH (Homo sapiens, UniProt Q02127).
T2 construct: C-terminal His6-tagged HsDHODH residues 29-395 in pET-22b (start ^29MATGDE); His6 (C); made in house; host or cells: E. coli BL21-DE3 (phage-resistant)
The test can be described thus: DHODH inhibition, steady-state DCIP assay (human DHODH). The test is classed as biochemical. The conditions noted are these: recombinant HsDHODH, DCIP method, 25°C, 5 nM enzyme; top concentration 100 µM or 30 µM.
Source text: as §2, §3, §4
as §1, with “Prism. DSM265 ^2 was plated as an assay control in all studies.” for “Prism.”

T1 sequence (Q08210 158-569): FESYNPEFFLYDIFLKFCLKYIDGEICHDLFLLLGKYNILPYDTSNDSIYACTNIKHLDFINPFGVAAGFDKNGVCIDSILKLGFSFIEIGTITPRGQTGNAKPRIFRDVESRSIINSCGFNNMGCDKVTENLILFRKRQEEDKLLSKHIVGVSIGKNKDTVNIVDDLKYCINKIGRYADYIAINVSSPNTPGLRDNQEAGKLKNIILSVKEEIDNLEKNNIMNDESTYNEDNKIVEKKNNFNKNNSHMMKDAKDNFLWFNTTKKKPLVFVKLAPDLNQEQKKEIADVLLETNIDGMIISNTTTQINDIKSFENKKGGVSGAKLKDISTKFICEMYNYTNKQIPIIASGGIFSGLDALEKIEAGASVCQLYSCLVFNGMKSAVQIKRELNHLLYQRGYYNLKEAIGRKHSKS
P. vivax DHODH, sequence (A5K1N1 entry or part of it): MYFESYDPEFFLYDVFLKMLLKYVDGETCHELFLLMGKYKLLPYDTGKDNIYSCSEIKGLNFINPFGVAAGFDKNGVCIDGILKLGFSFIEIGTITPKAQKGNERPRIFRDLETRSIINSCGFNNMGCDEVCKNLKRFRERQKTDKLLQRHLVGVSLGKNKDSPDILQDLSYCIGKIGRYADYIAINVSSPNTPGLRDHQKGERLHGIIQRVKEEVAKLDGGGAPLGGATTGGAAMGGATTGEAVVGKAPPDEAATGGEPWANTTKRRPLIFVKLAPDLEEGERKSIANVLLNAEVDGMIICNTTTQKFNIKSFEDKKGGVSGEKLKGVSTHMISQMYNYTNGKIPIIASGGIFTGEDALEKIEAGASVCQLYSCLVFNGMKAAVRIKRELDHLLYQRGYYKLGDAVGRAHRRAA
T2 sequence (Q02127 29-395): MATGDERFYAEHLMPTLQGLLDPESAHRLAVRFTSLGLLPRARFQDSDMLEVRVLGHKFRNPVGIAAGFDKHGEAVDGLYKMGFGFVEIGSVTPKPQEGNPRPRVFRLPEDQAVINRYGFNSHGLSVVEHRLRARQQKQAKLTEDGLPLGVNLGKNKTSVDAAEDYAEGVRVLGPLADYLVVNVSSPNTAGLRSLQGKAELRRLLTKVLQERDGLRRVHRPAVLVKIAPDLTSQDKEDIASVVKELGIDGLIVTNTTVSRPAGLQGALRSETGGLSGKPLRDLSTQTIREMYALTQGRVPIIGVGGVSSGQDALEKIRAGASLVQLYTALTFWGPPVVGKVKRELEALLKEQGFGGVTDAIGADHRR

Consider `CCn1ccc2c([C@@](O)(CC)c3ccc(F)c(Cl)c3)n(C)nc2c1=O` (single isomer, unassigned) [1-34], for which the results for the IC50 at P. falciparum DHODH, at P. vivax DHODH and on Human DHODH were 21 nM, 4.1 nM and 3900 nM, respectively. In addition, the EC50 (commonly the concentration at which the effect is half-maximal) in the test on P. falciparum 3D7 turned out to be 0.3 nM.

Consider `CCn1ccc2c([C@](C)(O)c3cnc(C(F)(F)F)c(Cl)c3)n(C)nc2c1=O` (single isomer, unassigned) [1-36], for which the IC50 (commonly the concentration that gives 50% inhibition) at P. falciparum DHODH is 45 nM; on P. vivax DHODH, 9.2 nM; on Human DHODH, more than 100000 nM. Moreover, in the test with P. falciparum 3D7, the EC50 is 1.4 nM.

Turning to `CCn1ccc2c([C@](O)(c3ccc(F)c(Cl)c3)C3CC3)n(C)nc2c1=O` (single isomer, unassigned) [1-38], the values for the IC50 at P. falciparum DHODH, on P. vivax DHODH and at Human DHODH were 17 nM, 4.3 nM and 88000 nM, respectively. Further, the EC50 in the test on P. falciparum 3D7 is 1.5 nM.

Consider `CCn1ccc2c([C@](C)(O)c3ccc(F)c(Cl)c3)n(C)nc2c1=O` (single isomer, unassigned) [1-40], for which the IC50 at P. falciparum DHODH amounted to 17 nM; on P. vivax DHODH, 5.2 nM; at Human DHODH, 80000 nM. Further, the response with P. falciparum 3D7 was half-maximal at 0.42 nM (EC50).

For the compound `CCn1ccc2c([C@@](O)(CC)c3cnc(C(F)(F)F)c(Cl)c3)n(C)nc2c1=O` (single isomer, unassigned) [1-42], the IC50 on P. falciparum DHODH worked out at 13 nM; at P. vivax DHODH, 7.9 nM; at Human DHODH, 41000 nM. Besides, the EC50 with P. falciparum 3D7 came out at 0.49 nM.

As to `CCn1ccc2c([C@](C)(O)c3ccc(C(F)(F)F)c(Cl)c3)n(C)nc2c1=O` (single isomer, unassigned) [1-46], the IC50 was 10 nM at P. falciparum DHODH, 5.8 nM at P. vivax DHODH and 41000 nM at Human DHODH. Also, in the test with P. falciparum 3D7, it took 0.2 nM to reach a half-maximal effect (EC50).

Regarding `CCn1ccc2c([C@](O)(c3ccc(C(F)(F)F)nc3)C(C)C)n(C)nc2c1=O` (single isomer, unassigned) [1-48], the IC50 was 81 nM on P. falciparum DHODH, 44 nM on P. vivax DHODH and more than 100000 nM at Human DHODH. The EC50 in the test with P. falciparum 3D7 turned out to be 18 nM.

Regarding `CCn1ccc2c([C@@](O)(CC)c3ccc(C(F)(F)F)nc3)n(C)nc2c1=O` (single isomer, unassigned) [1-50], the results for the IC50 at P. falciparum DHODH, at P. vivax DHODH and at Human DHODH were 54 nM, 27 nM and 46000 nM, respectively. For the same compound, the EC50 in the test with P. falciparum 3D7 is 1.5 nM.

Take `CC[C@@](O)(c1cnc(C(F)(F)F)c(Cl)c1)c1c2cnn(C3CC3)c(=O)c2nn1C1CC1` (single isomer, unassigned) [2-1]: the IC50 on P. falciparum DHODH came to 29 nM; at P. vivax DHODH it was 10 nM; on Human DHODH, 2300 nM. Besides, the EC50 in the test with P. falciparum 3D7 came to 12 nM.

Regarding `CCn1nc2c(=O)n(C3CC3)ncc2c1[C@@](O)(CC)c1cnc(C(F)(F)F)c(Cl)c1` (single isomer, unassigned) [2-3], the IC50 worked out at 29 nM on P. falciparum DHODH, 11 nM on P. vivax DHODH and 2700 nM at Human DHODH. Also, the response with P. falciparum 3D7 was half-maximal at 9.9 nM (EC50).

`CC[C@@](O)(c1ccc(C(F)(F)F)c(C#N)c1)c1c2cnn(C3CC3)c(=O)c2nn1C` (single isomer, unassigned) [2-5]: the figures for the IC50 on P. falciparum DHODH, at P. vivax DHODH and at Human DHODH were 19 nM, 19 nM and 4800 nM, respectively. Further, the EC50 in the test with P. falciparum 3D7 was found to be 1.3 nM.

For `Cn1nc2c(=O)n(C3CC3)ncc2c1[C@](O)(c1ccc(C(F)(F)F)c(C#N)c1)C1CC1` (single isomer, unassigned) [2-7], the IC50 on P. falciparum DHODH is 23 nM; at P. vivax DHODH it was 17 nM; on Human DHODH, more than 30000 nM. Besides, the EC50 in the test with P. falciparum 3D7 came out at 4.2 nM.

Regarding `Cn1nc2c(=O)n(C3CC3)ncc2c1[C@](O)(c1ccc(C(F)(F)F)c(Cl)c1)C1CC1` (single isomer, unassigned) [2-11], the half-maximal inhibitory concentration (IC50) was 9.6 nM on P. falciparum DHODH, 9.9 nM at P. vivax DHODH and more than 30000 nM at Human DHODH. The EC50 with P. falciparum 3D7 is 1.9 nM.

Regarding `CC[C@@](O)(c1ccc(C(F)(F)F)c(Cl)c1)c1c2cnn(C3CC3)c(=O)c2nn1C` (single isomer, unassigned) [2-15], the half-inhibitory concentration (IC50) at P. falciparum DHODH came out at 6.2 nM; on P. vivax DHODH, 9.8 nM; at Human DHODH, 1700 nM. For the same compound, in the test on P. falciparum 3D7, a half-maximal response (EC50) required 0.32 nM.

In the case of `CC[C@@](O)(c1ccc(F)c(Cl)c1)c1c2cnn(C3CC3)c(=O)c2nn1C` (single isomer, unassigned) [2-17], the IC50 was found to be 8.4 nM on P. falciparum DHODH, 9.5 nM on P. vivax DHODH and 2500 nM at Human DHODH. The EC50 in the test with P. falciparum 3D7 stood at 1.7 nM.

Take `CCn1ncc2c([C@@](O)(CC)c3ccc(C(F)(F)F)c(Cl)c3)n(C)nc2c1=O` (single isomer, unassigned) [2-19]: the IC50 at P. falciparum DHODH amounted to 6.9 nM; at P. vivax DHODH, 2.9 nM; on Human DHODH it was 11000 nM. In the test with P. falciparum 3D7, the midpoint of the response, the EC50, lay at 0.35 nM.

As for `Cn1nc2c(=O)n(C3CC3)cnc2c1[C@](C)(O)c1cnc(C(F)(F)F)c(Cl)c1` (single isomer, unassigned) [3-1], the IC50 is 21 nM at P. falciparum DHODH, 7.9 nM on P. vivax DHODH and more than 30000 nM on Human DHODH. In addition, in the test on P. falciparum 3D7, a half-maximal response (EC50) required 2.2 nM.

Take `Cn1nc2c(=O)n(C3CC3)cnc2c1[C@](O)(c1cnc(C(F)(F)F)c(Cl)c1)C1CC1` (single isomer, unassigned) [3-3]: the IC50 was 22 nM on P. falciparum DHODH, 8.3 nM at P. vivax DHODH and more than 30000 nM on Human DHODH. In the test with P. falciparum 3D7, it took 4 nM to reach a half-maximal effect (EC50).

As to `CC[C@@](O)(c1ccc(C(F)(F)F)nc1)c1c2ncn(C3CC3)c(=O)c2nn1C` (single isomer, unassigned) [3-7], the IC50 came out at 27 nM at P. falciparum DHODH, 55 nM at P. vivax DHODH and 14000 nM on Human DHODH. In addition, the EC50 in the test with P. falciparum 3D7 came out at 1.6 nM.

As for `Cn1nc2c(=O)n(C3CC3)cnc2c1[C@](O)(c1ccc(C(F)(F)F)nc1)C1CC1` (single isomer, unassigned) [3-9], the IC50 at P. falciparum DHODH was 48 nM; at P. vivax DHODH it was 59 nM; on Human DHODH it was more than 30000 nM. This compound also showed an EC50 in the test with P. falciparum 3D7 of 12 nM.

For `CCn1cnc2c([C@](C)(O)c3ccc(C(F)(F)F)c(C#N)c3)n(C)nc2c1=O` (single isomer, unassigned) [3-11], the IC50 on P. falciparum DHODH is 32 nM; on P. vivax DHODH it was 9.4 nM; at Human DHODH, more than 100000 nM. Further, the EC50 in the test on P. falciparum 3D7 is 0.52 nM.

Take `Cn1nc2c(=O)n(C3CC3)ccc2c1[C@](N)(c1cnc(C(F)(F)F)c(Cl)c1)C(F)(F)F` (single isomer, unassigned) [4-1]: the values for the IC50 at P. falciparum DHODH, on P. vivax DHODH and on Human DHODH were 21 nM, 13 nM and more than 30000 nM, respectively. The compound also gave an EC50 in the test with P. falciparum 3D7 of 2.6 nM.

As to `Cn1nc2c(=O)n(C3CC3)ccc2c1[C@](C)(N)c1ccc(C(F)(F)F)c(Cl)c1` (single isomer, unassigned) [4-4], the IC50 on P. falciparum DHODH was determined as 12 nM; at P. vivax DHODH, 9 nM; at Human DHODH, 15000 nM. The EC50 with P. falciparum 3D7 was 0.61 nM.

For `CC[C@@](N)(c1ccc(C(F)(F)F)c(F)c1)c1c2ccn(C3CC3)c(=O)c2nn1C` (single isomer, unassigned) [4-5], the IC50 at P. falciparum DHODH came out at 16 nM; at P. vivax DHODH it was 7 nM; on Human DHODH, 1300 nM. In addition, the EC50 in the test on P. falciparum 3D7 amounted to 10 nM.

In the case of `CC[C@@](N)(c1ccc(C(F)(F)F)c(Cl)c1)c1c2ccn(C3CC3)c(=O)c2nn1C` (single isomer, unassigned) [4-8], the IC50 at P. falciparum DHODH amounted to 9.3 nM; on P. vivax DHODH, 6.2 nM; at Human DHODH, 1000 nM. Moreover, a half-maximal effect in the test with P. falciparum 3D7 (EC50) was put at 1.1 nM.
